From patent publication US20250127170A1, “TRIAZINE HERBICIDAL COMPOUNDS” (SYNGENTA CROP PROTECTION AG, priority 2021, published 2025)

Legend:
Type in all cases: in vivo
Conditions in all cases: 312 h, evaluated after 13 days, 100=total damage to plant, 0=no damage to plant
[1] = tested on: Setaria faberi (SETFA); experiment: Post-emergence biological efficacy
Experimental: (§1) Seeds of weeds and/or crops were sown in standard soil in pots (Amaranthus palmeri (AMAPA), Chenopodium album (CHEAL), Euphorbia heterophylla (EPHHL), Ipomoea hederacea (IPOHE), Eleusine indica (ELEIN), Lolium perenne (LOLPE), Digitaria sanguinalis (DIGSA), Setaria faberi (SETFA), Echinochloa crus-galli (ECHCG)). After cultivation for 14 days under controlled conditions in a glasshouse (at 24/19° C., day/night; 16 hours light), the plants were sprayed with an aqueous spray solution derived from the formulation of the technical active ingredient in a small amount of acetone and a special solvent and emulsifier mixture referred to as IF50 (11.12% Emulsogen EL360™+44.44% N-methylpyrrolidone+44.44% Dowanol DPM glycol ether), to create a 50 g/l solution which was then diluted using 0.2% Genapol XO80 as diluent to give the desired final dose of test compound. The test plants were then grown under controlled conditions in the glasshouse (at 24/18° C., day/night; 15 hours light; 50% humidity) and watered twice daily. After 13 days the test was evaluated (100=total damage to plant; 0=no damage to plant).

[2] = tested on: Chenopodium album (CHEAL); experiment: Post-emergence biological efficacy
Experimental: as §1

[3] = tested on: Eleusine indica (ELEIN); experiment: Post-emergence biological efficacy
Experimental: as §1

[4] = tested on: Amaranthus palmeri (AMAPA); experiment: Post-emergence biological efficacy
Experimental: as §1

[5] = tested on: Digitaria sanguinalis (DIGSA); experiment: Post-emergence biological efficacy
Experimental: as §1

[6] = tested on: Ipomoea hederacea (IPOHE); experiment: Post-emergence biological efficacy
Experimental: as §1

[7] = tested on: Euphorbia heterophylla (EPHHL); experiment: Post-emergence biological efficacy
Experimental: as §1

[8] = tested on: Echinochloa crus-galli (ECHCG); experiment: Post-emergence biological efficacy
Experimental: as §1

[9] = tested on: Lolium perenne (LOLPE); experiment: Post-emergence biological efficacy
Experimental: as §1

[10] = tested on: Setaria faberi (SETFA); experiment: Pre-emergence biological efficacy
Experimental: (§2) Seeds of weeds and/or crops were sown in standard soil in pots (Amaranthus palmeri (AMAPA), Lolium perenne (LOLPE), Euphorbia heterophylla (EPHHL), Ipomoea hederacea (IPOHE), Setaria faberi (SETFA), Echinochloa crus-galli (ECHCG)). After cultivation for one day under controlled conditions in a glasshouse (at 24/19° C., day/night; 16 hours light), the plants were sprayed with an aqueous spray solution derived from the formulation of the technical active ingredient in a small amount of acetone and a special solvent and emulsifier mixture referred to as IF50 (11.12% Emulsogen EL360™+44.44% N-methylpyrrolidone+44.44% Dowanol DPM glycol ether), to create a 50 g/l solution which was then diluted using 0.2% Genapol XO80 as diluent to give the desired final dose of test compound.
(§3) The test plants were then grown under controlled conditions in the glasshouse (at 24/18° C., day/night; 15 hours light; 50% humidity) and watered twice daily. After 13 days the test was evaluated (100=total damage to plant; 0=no damage to plant).

[11] = tested on: Amaranthus palmeri (AMAPA); experiment: Pre-emergence biological efficacy
Experimental: as §2, §3

[12] = tested on: Ipomoea hederacea (IPOHE); experiment: Pre-emergence biological efficacy
Experimental: as §2, §3

[13] = tested on: Euphorbia heterophylla (EPHHL); experiment: Pre-emergence biological efficacy
Experimental: as §2, §3

[14] = tested on: Echinochloa crus-galli (ECHCG); experiment: Pre-emergence biological efficacy
Experimental: as §2, §3

[15] = tested on: Lolium perenne (LOLPE); experiment: Pre-emergence biological efficacy
Experimental: as §2, §3

Measured: pest or weed control at 250 g/ha

CCOC(=O)[C@H]1C[C@@H](OC(=O)c2cc(-n3c(=O)n(C)c(=S)n(C)c3=O)c(F)cc2Cl)C1 [1-981 (cis), (cis)-(3-Ethoxycarbonylcyclobutyl) 2-chloro-5-(3,5-dimethyl-2,6-dioxo-4-thioxo-1,3,5-triazinan-1-yl)-4-fluoro-benzoate]
60%: [7]
80%: [4] | [8] | [15]
100%: [1] | [2] | [11] | [14]
70%: [9] | [12]
50%: all other assays above

CCOC(=O)COC(=O)c1cc(-n2c(=O)n(C)c(=S)n(C)c2=O)c(F)cc1Cl [Compound 1-12, (2-ethoxy-2-oxo-ethyl]-2-chloro-5-(3,5-dimethyl-2,6-dioxo-4-thioxo-1,3,5-triazinan-1-yl)-4-fluoro-benzoate]
90%: [13] | [14] | [15]
80%: [10] | [12]
100%: all other assays above

COC(=O)CNC(=O)c1cc(-n2c(=O)n(C)c(=S)n(C)c2=O)c(F)cc1Cl [Compound 1-35, Methyl 2-[[2-chloro-5-(3,5-dimethyl-2,6-dioxo-4-thioxo-1,3,5-triazinan-1-yl)-4-fluoro-benzoyl]amino]acetate]
10%: [9] | [10]
80%: [14]
70%: [7] | [15]
0%: [12]
20%: [2]
30%: [4] | [11]
50%: [6]
40%: all other assays above

CCOC(=O)[C@H](C)OC(=O)c1cc(-n2c(=O)n(C)c(=S)n(C)c2=O)c(F)cc1Cl [Compound 1-63 (S-enantiomer), [(1S)-2-ethoxy-1-methyl-2-oxo-ethyl]-2-chloro-5-(3,5-dimethyl-2,6-dioxo-4-thioxo-1,3,5-triazinan-1-yl)-4-fluoro-benzoate]
60%: [12]
90%: [13] | [15]
80%: [10]
100%: all other assays above
